Experiments:
Assay type in all cases: cell-based, human
[1] = system: MD901 DLBCL cell line; assay: Annexin V/DAPI apoptosis assay in MD901; details: for Apoptosis by Annexin V/DAPI staining: MD901 (FIG. 8A); for Drug-induced apoptosis upon RelB-expression knockdown: RelB knocked-down MD901 vs shRNA control (FIG. 8A)
Description: MD901 and SUDHL-4 DLBCL cell lines were obtained from Jos6 Angel Martinez-Climent (Centro de Investigación Médica Aplicada, Pamplona, Spain).
(§1) DLBCL cells were harvested and washed twice with cold PBS. Cells were resuspended in 1× binding buffer containing Annexin V/APC (BD Biosciences Pharmingen) and 4′,6-diaminidino-2-phenylindole (DAPI, Molecular Probes) for 15 min at room temperature. The samples were subjected to cytometric analysis with a MACSQuant Analyzer 10 Flow Cytometer (Miltenyi Biotec) and the data were analyzed using the Flowjo v10.2 software.

[2] = system: MD901 cells; assay: Induction of cell death in MD901 cells
Description: as §1
(§2) Cell viability was assessed using trypan blue dye exclusion.

[3] = system: OCILY19 cells; assay: Induction of cell death in OCILY19 cells
Description: as §1, §2

[4] = system: SUDHL-4 cells; assay: Induction of cell death in SUDHL-4 cells; details: glycolytic BCR SUDHL-4 cells
Description: as §1, §2

[5] = system: MD901 DLBCL cell line; assay: Mitochondrial transmembrane potential (TMRM) in MD901; details: RelB knocked-down MD901, TMRM low (FIG. 8B)
Description: For determination of mitochondrial transmembrane potential (ΔΨm), cells were stained with 100 nM of Tetramethyl rhodamine methyl ester (TMRM) (Molecular Probes) in RPMI-1640 Glutamax medium for 30 min at room temperature. Cells were evaluated by cytometric analysis as above. During apoptosis, the permeabilization of the mitochondrial outer membrane leads to loss of mitochondrial transmembrane potential (ΔΨm) corresponding to TMRM low/DAPI neg cells.

[6] = system: Huh7 cells; assay: Huh7 cell growth (RelB overexpressing cells); details: 4-BCA 10 μM, 48 h, vs control cells (FIG. 4B)
Description: (§3) Huh7 HCC cell line and genetically engineered derivatives targeting RelB expression levels (knock-down of RelB expression: Huh7 shRNA human RelB & Huh7 shRNA control; RelB overexpression: Huh7 cDNA human WT Rel & Huh7 cDNA control) were grown in MEM culture medium supplemented with 10% of fetal bovine serum (FBS), 100 U/mL penicillin, and […] streptomycin, 25 mM Hepes Buffer, 1 mM of sodium pyruvate, 1% of non-essential amino-acids (NEAA), which stands for standard culture medium. Huh7 genetically engineered cell lines were only used at passage P1 to P6. Cells passaging occurred twice a week to maintain a condition of 75% confluence. To evaluate the effect of fatty acid treatment, Huh7 cells cultured in FBS-free medium for hours were treated for 16 hours in FBS-free medium supplemented with various concentration (50 to 300 μM) of either oleic or palmitic acid along with 1% of free fatty acid bovine serum albumin.
as §2

[7] = system: Huh7 cells; assay: Huh7 cell death, DAPI staining; details: RelB overexpressing Huh7, palmitic acid 50 μM, 0% FBS, 48 h, in presence of 4-BCA (FIG. 4C)
Description: as §3, with “Huh7 cells cultured in FBS-free medium for hours were treated for 16 hours in FBS-free medium supplemented with various concentration (50 to 300 μM) of either oleic or palmitic acid along with 1% of free fatty” left out
Huh7 cells were stained with 4′, 6-diamidino-2-phenylindole (DAPI). Then, images were acquired for DAPI positive cells by fluorescent microscopy (magnification: 20×) on at least 6 different fields combined with one acquisition under white light to quantify the total number of cells in the same field. Quantification was carried out by image J software. Cell death is expressed in percentage (number of DAPI positive cells/total number of cells per field)*100).

## COc1cc(Nc2ncc(F)c(Nc3ccc4c(n3)NC(=O)C(C)(C)O4)n2)cc(OC)c1OC [R406]
[1]; MD901 (FIG. 6A)
  Sensitivity to R406-induced apoptosis: insensitive

## C=C1C(=O)OC(CCCCCCCC)C1C(=O)O (stereo not shown) [C75]
[2]; MD901, as soon as 24 hours post-treatment (FIG. 11A)
  Cell death upon inhibition of fatty acid synthesis: massive and rapid cell death
[3]; Oci-Ly19, as soon as 24 hours post-treatment (FIG. 12A)
  Cell death upon inhibition of fatty acid synthesis: massive and rapid cell death
[4]; compared with MD901 / Oci-Ly19
  Sensitivity to C75: much less sensitive

## CN(C)C(=N)N=C(N)N [Metformin, metformin]
[1]
  Apoptosis by Annexin V/DAPI staining: significant apoptosis
  Drug-induced apoptosis upon RelB-expression knockdown: markedly increased
[1]; RelB knocked-down MD901
  Cell death induced by metformin upon knockdown of RelB expression: even more pronounced cell death
[5]
  Loss of mitochondrial potential upon RelB-expression knockdown: increase in loss of mitochondrial potential

## O=C(O)/C=C/CBr [4-BCA, 4-bromocrotonic acid]
[6]
  Cell growth in RelB overexpressing Huh7 cells: the RelB-dependent increase in Huh7 cell number was lost and cell growth rate was even lowered compared to the control cells
[7]
  Cell death (DAPI positive cells), RelB pro-survival effect against palmitate: RelB pro-survival effect was almost completely abolished
[2]; MD901, as soon as 24 hours post-treatment (FIG. 9A)
  Cell death upon inhibition of fatty acid oxidation: massive and rapid cell death
[3]; Oci-Ly19, as soon as 24 hours post-treatment (FIG. 10A)
  Cell death upon inhibition of fatty acid oxidation: massive and rapid cell death
[4]; compared with MD901 / Oci-Ly19 (not shown)
  Sensitivity to 4-BCA treatment: much less sensitive

B1: Kidrolase®: L-asparaginase; catalyzes the hydrolysis of asparagine and glutamine into aspartate and glutamate (protein, UniProt P00805 23-348, looked up)
L-asparaginase 2: LPNITILATGGTIAGGGDSATKSNYTVGKVGVENLVNAVPQLKDIANVKGEQVVNIGSQDMNDNVWLTLAKKINTDCDKTDGFVITHGTDTMEETAYFLDLTVKCDKPVVMVGAMRPSTSMSADGPFNLYNAVVTAADKASANRGVLVVMNDTVLDGRDVTKTNTTDVATFKSVNYGPLGYIHNGKIDYQRTPARKHTSDTPFDVSKLNELPKVGIVYNYANASDLPAKALVDAGYDGIVSAGVGNGNLYKSVFDTLATAAKTGTAVVRSSRVPTGATTQDAEVDDAKYGFVASGTLNPQKARVLLQLALTQTKDPQQIQQIFNQY
[1]
  Apoptosis by Annexin V/DAPI staining: significant apoptosis
  Drug-induced apoptosis upon RelB-expression knockdown: markedly increased
[5]
  Loss of mitochondrial potential upon RelB-expression knockdown: increase in loss of mitochondrial potential
